Columns and labels:
crabgrass, large = experiment: Test A postemergence; type: in vivo, Digitaria sanguinalis
Procedure, shortened: (§1)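 Visual injury ratings, 0 = no effect to 100 = complete control, taken about 10 days after treatment against untreated controls. Test chemicals, in a non-phytotoxic surfactant-containing solvent, were sprayed onto soil preemergence or onto one- to two-leaf plants (2–10 cm) postemergence, in loam–sand soil under greenhouse conditions.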

pigweed = experiment: Test C preemergence; type: in vivo, Amaranthus retroflexus; conditions: preemergence; for Plant response rating, Pigweed: 125 g ai/ha, scale 0 to 100, 0 = no effect, 100 = complete control
Procedure, shortened: (§2)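 Scores of 0 (no effect) to 100 (complete control) were assigned by eye after 13–15 days, comparing treated pots with controls. Soil-applied (preemergence) treatments went onto seeds in loam and sand; foliar (postemergence) treatments onto 1- to 4-leaf plants in peat medium.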

soybean = experiment: Test C preemergence; type: in vivo, Glycine max; conditions: preemergence; for Plant response rating, Soybean: 125 g ai/ha, scale 0 to 100, 0 = no effect, 100 = complete control
Procedure, shortened: as §2

corn [1] = experiment: Test C preemergence; type: in vivo, Zea mays; conditions: preemergence; for Plant response rating, Corn: 125 g ai/ha, scale 0 to 100, 0 = no effect, 100 = complete control
Procedure, shortened: as §2

ryegrass, Italian = experiment: Test C preemergence; type: in vivo, Lolium multiflorum; conditions: preemergence; for Plant response rating, Ryegrass, Italian: 125 g ai/ha, scale 0 to 100, 0 = no effect, 100 = complete control
Procedure, shortened: as §2

barnyardgrass [2] = experiment: Test C preemergence; type: in vivo, Echinochloa crus-galli; conditions: preemergence; for Plant response rating, Barnyardgrass: 125 g ai/ha, scale 0 to 100, 0 = no effect, 100 = complete control
Procedure, shortened: as §2

oilseed rape = experiment: Test C preemergence; type: in vivo, Brassica napus; conditions: preemergence; for Plant response rating, Oilseed Rape: 125 g ai/ha, scale 0 to 100, 0 = no effect, 100 = complete control
Procedure, shortened: as §2

barnyardgrass [3] = experiment: Test A preemergence; type: in vivo, Echinochloa crus-galli; conditions: preemergence; for Barnyardgrass plant response rating (0 to 100 scale, 0 is no effect, 100 is complete control): 125 g ai/ha, visual injury approx. 10 days after treatment; for Barnyardgrass plant response rating: 500 g ai/ha, visual injury after approx. 10 days, 0 to 100 scale (0 no effect, 100 complete control)
Procedure, shortened: as §1

galium = experiment: Test C preemergence; type: in vivo, Galium aparine; conditions: preemergence; for Plant response rating, Galium: 125 g ai/ha, scale 0 to 100, 0 = no effect, 100 = complete control
Procedure, shortened: as §2

velvetleaf [4] = experiment: Test C preemergence; type: in vivo, Abutilon theophrasti; conditions: preemergence; for Plant response rating, Velvetleaf: 125 g ai/ha, scale 0 to 100, 0 = no effect, 100 = complete control
Procedure, shortened: as §2

johnsongrass = experiment: Test C preemergence; type: in vivo, Sorghum halepense; conditions: preemergence; for Plant response rating, Johnsongrass: 125 g ai/ha, scale 0 to 100, 0 = no effect, 100 = complete control
Procedure, shortened: as §2

wheat = experiment: Test C preemergence; type: in vivo, Triticum aestivum; conditions: preemergence; for Plant response rating, Wheat: 125 g ai/ha, scale 0 to 100, 0 = no effect, 100 = complete control
Procedure, shortened: as §2

corn [5] = experiment: Test A postemergence; type: in vivo, Zea mays
Procedure, shortened: as §1

blackgrass = experiment: Test C preemergence; type: in vivo, Alopecurus myosuroides; conditions: preemergence; for Plant response rating, Blackgrass: 125 g ai/ha, scale 0 to 100, 0 = no effect, 100 = complete control
Procedure, shortened: as §2

velvetleaf [6] = experiment: Test A postemergence; type: in vivo, Abutilon theophrasti; conditions: Postemergence
Procedure, shortened: as §1

[7] = Postemergence, 500 g ai/ha, 0 to 100 scale (0 no effect, 100 complete control)
[8] = postemergence, 125 g ai/ha, about 10 days, visual rating on 0 to 100 scale (0 no effect, 100 complete control)
[9] = 31 g ai/ha, visual rating, scale 0 to 100 (0 no effect, 100 complete control), 13 to 15 days
[10] = 62 g ai/ha, scale 0 to 100 (0 no effect, 100 complete control), 13 to 15 days
[11] = 250 g ai/ha, scale 0 to 100, 0 is no effect, 100 is complete control
[12] = 125 g ai/ha, 0 to 100 scale, 0 no effect, 100 complete control
[13] = 500 g ai/ha, 0 to 100 scale (0 no effect, 100 complete control)

CCCNC(=O)c1cc(CCC)n(Cc2cc(C(F)(F)F)nn2C)n1 [Compound 198]
Crabgrass, Large plant response rating (crabgrass, large; [7]): 100 | Crabgrass, Large plant response rating (crabgrass, large; [8]): 90 | Pigweed plant response rating (pigweed; [9]): 100 | Pigweed plant response rating (pigweed; [10]): 100 | Plant response rating, Pigweed (pigweed; 13 to 15 days): 100 | Pigweed plant response rating (pigweed; [11]): 100 | Soybean plant response rating (soybean; [9]): 75 | Soybean plant response rating (soybean; [10]): 90 | Plant response rating, Soybean (soybean; 13 to 15 days): 98 | Soybean plant response rating (soybean; [11]): 98 | Corn plant response rating (corn [1]; [9]): 5 | Corn plant response rating (corn [1]; [10]): 55 | Plant response rating, Corn (corn [1]; 13 to 15 days): 85 | Corn plant response rating (corn [1]; [11]): 98 | Ryegrass, Italian plant response rating (ryegrass, Italian; [9]): 25 | Ryegrass, Italian plant response rating (ryegrass, Italian; [10]): 70 | Plant response rating, Ryegrass, Italian (ryegrass, Italian; 13 to 15 days): 90 | Ryegrass, Italian plant response rating (ryegrass, Italian; [11]): 90 | Barnyardgrass plant response rating (barnyardgrass [2]; [9]): 100 | Barnyardgrass plant response rating (barnyardgrass [2]; [10]): 100 | Plant response rating, Barnyardgrass (barnyardgrass [2]; 13 to 15 days): 100 | Barnyardgrass plant response rating (barnyardgrass [2]; [11]): 100 | Oilseed Rape plant response rating (oilseed rape; [9]): 95 | Oilseed Rape plant response rating (oilseed rape; [10]): 100 | Plant response rating, Oilseed Rape (oilseed rape; 13 to 15 days): 100 | Oilseed Rape plant response rating (oilseed rape; [11]): 100 | Barnyardgrass plant response rating (0 to 100 scale, 0 is no effect, 100 is complete control) (barnyardgrass [3]): 100 | Barnyardgrass plant response rating (barnyardgrass [3]): 100 | Galium plant response rating (galium; [9]): 98 | Galium plant response rating (galium; [10]): 95 | Plant response rating, Galium (galium; 13 to 15 days): 100 | Galium plant response rating (galium; [11]): 100 | Velvetleaf plant response rating (velvetleaf [4]; [9]): 35 | Velvetleaf plant response rating (velvetleaf [4]; [10]): 85 | Plant response rating, Velvetleaf (velvetleaf [4]; 13 to 15 days): 100 | Velvetleaf plant response rating (velvetleaf [4]; [11]): 100 | Johnsongrass plant response rating (johnsongrass; [9]): 25 | Johnsongrass plant response rating (johnsongrass; [10]): 80 | Plant response rating, Johnsongrass (johnsongrass; 13 to 15 days): 100 | Johnsongrass plant response rating (johnsongrass; [11]): 100 | Wheat plant response rating (wheat; [9]): 5 | Wheat plant response rating (wheat; [10]): 35 | Plant response rating, Wheat (wheat; 13 to 15 days): 90 | Wheat plant response rating (wheat; [11]): 90 | Corn plant response rating (corn [5]; [7]): 90 | Corn plant response rating (corn [5]; [8]): 90 | Blackgrass plant response rating (blackgrass; [9]): 85 | Blackgrass plant response rating (blackgrass; [10]): 90 | Plant response rating, Blackgrass (blackgrass; 13 to 15 days): 90 | Blackgrass plant response rating (blackgrass; [11]): 90 | Velvetleaf plant response rating (velvetleaf [6]; [12]): 30 | Velvetleaf plant response rating (velvetleaf [6]; [13]): 100

CCc1cc(C(=O)NCC2CC2)nn1Cc1ccnc(C(F)(F)F)c1 [Compound 199]
Crabgrass, Large plant response rating (crabgrass, large; [7]): 90 | Crabgrass, Large plant response rating (crabgrass, large; [8]): 90 | Pigweed plant response rating (pigweed; [9]): 100 | Pigweed plant response rating (pigweed; [10]): 100 | Plant response rating, Pigweed (pigweed; 13 to 15 days): 100 | Pigweed plant response rating (pigweed; [11]): 100 | Soybean plant response rating (soybean; [9]): 30 | Soybean plant response rating (soybean; [10]): 55 | Plant response rating, Soybean (soybean; 13 to 15 days): 90 | Soybean plant response rating (soybean; [11]): 95 | Corn plant response rating (corn [1]; [9]): 20 | Corn plant response rating (corn [1]; [10]): 65 | Plant response rating, Corn (corn [1]; 13 to 15 days): 75 | Corn plant response rating (corn [1]; [11]): 90 | Ryegrass, Italian plant response rating (ryegrass, Italian; [9]): 40 | Ryegrass, Italian plant response rating (ryegrass, Italian; [10]): 85 | Plant response rating, Ryegrass, Italian (ryegrass, Italian; 13 to 15 days): 90 | Ryegrass, Italian plant response rating (ryegrass, Italian; [11]): 90 | Barnyardgrass plant response rating (barnyardgrass [2]; [9]): 95 | Barnyardgrass plant response rating (barnyardgrass [2]; [10]): 100 | Plant response rating, Barnyardgrass (barnyardgrass [2]; 13 to 15 days): 100 | Barnyardgrass plant response rating (barnyardgrass [2]; [11]): 100 | Oilseed Rape plant response rating (oilseed rape; [9]): 80 | Oilseed Rape plant response rating (oilseed rape; [10]): 95 | Plant response rating, Oilseed Rape (oilseed rape; 13 to 15 days): 100 | Oilseed Rape plant response rating (oilseed rape; [11]): 100 | Barnyardgrass plant response rating (0 to 100 scale, 0 is no effect, 100 is complete control) (barnyardgrass [3]): 100 | Barnyardgrass plant response rating (barnyardgrass [3]): 100 | Galium plant response rating (galium; [9]): 40 | Galium plant response rating (galium; [10]): 100 | Plant response rating, Galium (galium; 13 to 15 days): 100 | Galium plant response rating (galium; [11]): 100 | Velvetleaf plant response rating (velvetleaf [4]; [9]): 40 | Velvetleaf plant response rating (velvetleaf [4]; [10]): 100 | Plant response rating, Velvetleaf (velvetleaf [4]; 13 to 15 days): 100 | Velvetleaf plant response rating (velvetleaf [4]; [11]): 100 | Johnsongrass plant response rating (johnsongrass; [9]): 45 | Johnsongrass plant response rating (johnsongrass; [10]): 70 | Plant response rating, Johnsongrass (johnsongrass; 13 to 15 days): 98 | Johnsongrass plant response rating (johnsongrass; [11]): 100 | Wheat plant response rating (wheat; [9]): 60 | Wheat plant response rating (wheat; [10]): 85 | Plant response rating, Wheat (wheat; 13 to 15 days): 90 | Wheat plant response rating (wheat; [11]): 90 | Corn plant response rating (corn [5]; [7]): 90 | Corn plant response rating (corn [5]; [8]): 50 | Blackgrass plant response rating (blackgrass; [9]): 90 | Blackgrass plant response rating (blackgrass; [10]): 90 | Plant response rating, Blackgrass (blackgrass; 13 to 15 days): 90 | Blackgrass plant response rating (blackgrass; [11]): 90 | Velvetleaf plant response rating (velvetleaf [6]; [12]): 80 | Velvetleaf plant response rating (velvetleaf [6]; [13]): 90

CCc1cc(C(=O)NC2CC2)nn1Cc1ccnc(OCC(F)(F)F)c1 [Compound 200]
Crabgrass, Large plant response rating (crabgrass, large; [7]): 100 | Crabgrass, Large plant response rating (crabgrass, large; [8]): 100 | Pigweed plant response rating (pigweed; [9]): 100 | Pigweed plant response rating (pigweed; [10]): 100 | Plant response rating, Pigweed (pigweed; 13 to 15 days): 100 | Pigweed plant response rating (pigweed; [11]): 100 | Soybean plant response rating (soybean; [9]): 50 | Soybean plant response rating (soybean; [10]): 70 | Plant response rating, Soybean (soybean; 13 to 15 days): 70 | Soybean plant response rating (soybean; [11]): 85 | Corn plant response rating (corn [1]; [9]): 0 | Corn plant response rating (corn [1]; [10]): 15 | Plant response rating, Corn (corn [1]; 13 to 15 days): 35 | Corn plant response rating (corn [1]; [11]): 80 | Ryegrass, Italian plant response rating (ryegrass, Italian; [9]): 0 | Ryegrass, Italian plant response rating (ryegrass, Italian; [10]): 90 | Plant response rating, Ryegrass, Italian (ryegrass, Italian; 13 to 15 days): 90 | Ryegrass, Italian plant response rating (ryegrass, Italian; [11]): 95 | Barnyardgrass plant response rating (barnyardgrass [2]; [9]): 45 | Barnyardgrass plant response rating (barnyardgrass [2]; [10]): 70 | Plant response rating, Barnyardgrass (barnyardgrass [2]; 13 to 15 days): 90 | Barnyardgrass plant response rating (barnyardgrass [2]; [11]): 98 | Oilseed Rape plant response rating (oilseed rape; [9]): 60 | Oilseed Rape plant response rating (oilseed rape; [10]): 95 | Plant response rating, Oilseed Rape (oilseed rape; 13 to 15 days): 98 | Oilseed Rape plant response rating (oilseed rape; [11]): 98 | Barnyardgrass plant response rating (0 to 100 scale, 0 is no effect, 100 is complete control) (barnyardgrass [3]): 90 | Barnyardgrass plant response rating (barnyardgrass [3]): 100 | Galium plant response rating (galium; [9]): 85 | Galium plant response rating (galium; [10]): 100 | Plant response rating, Galium (galium; 13 to 15 days): 100 | Galium plant response rating (galium; [11]): 100 | Velvetleaf plant response rating (velvetleaf [4]; [9]): 40 | Velvetleaf plant response rating (velvetleaf [4]; [10]): 70 | Plant response rating, Velvetleaf (velvetleaf [4]; 13 to 15 days): 100 | Velvetleaf plant response rating (velvetleaf [4]; [11]): 100 | Johnsongrass plant response rating (johnsongrass; [9]): 50 | Johnsongrass plant response rating (johnsongrass; [10]): 80 | Plant response rating, Johnsongrass (johnsongrass; 13 to 15 days): 90 | Johnsongrass plant response rating (johnsongrass; [11]): 98 | Wheat plant response rating (wheat; [9]): 0 | Wheat plant response rating (wheat; [10]): 15 | Plant response rating, Wheat (wheat; 13 to 15 days): 45 | Wheat plant response rating (wheat; [11]): 75 | Corn plant response rating (corn [5]; [7]): 100 | Corn plant response rating (corn [5]; [8]): 80 | Blackgrass plant response rating (blackgrass; [9]): 50 | Blackgrass plant response rating (blackgrass; [10]): 80 | Plant response rating, Blackgrass (blackgrass; 13 to 15 days): 90 | Blackgrass plant response rating (blackgrass; [11]): 90 | Velvetleaf plant response rating (velvetleaf [6]; [12]): 80 | Velvetleaf plant response rating (velvetleaf [6]; [13]): 90

— patent publication US20150105252A1, “SUBSTITUTED PYRAZOLES AS HERBICIDES” (E I DU PONT DE NEMOURS AND COMPANY, priority 2013, published 2015)
